Source: PubChem BioAssay (NCI)
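At the GI50, growth is halved. TGI marks complete inhibition of growth.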

Legend:
Experiment in all cases: inhibition of tumour cell growth, NCI panel, 384-well format
HOP-92 NSCLC = tested on: HOP-92 NSCLC
K-562 leukemia = tested on: K-562 leukemia
A498 renal = tested on: A498 renal
EKVX NSCLC = tested on: EKVX NSCLC
TK-10 renal = tested on: TK-10 renal
SK-MEL-28 melanoma = tested on: SK-MEL-28 melanoma
SF-268 CNS = tested on: SF-268 CNS
U251 glioblastoma = tested on: U251 glioblastoma
A549 NSCLC = tested on: A549 NSCLC
DU-145 prostate = tested on: DU-145 prostate
BT-549 breast = tested on: BT-549 breast
SK-OV-3 ovarian = tested on: SK-OV-3 ovarian
OVCAR-4 ovarian = tested on: OVCAR-4 ovarian
SK-MEL-5 melanoma = tested on: SK-MEL-5 melanoma
SK-MEL-2 melanoma = tested on: SK-MEL-2 melanoma
MDA-MB-231 breast = tested on: MDA-MB-231 breast
RPMI-8226 leukemia = tested on: RPMI-8226 leukemia
NCI-H226 lung = tested on: NCI-H226 lung
SW-620 colon = tested on: SW-620 colon
SF-539 CNS = tested on: SF-539 CNS
IGROV1 ovarian = tested on: IGROV1 ovarian
RXF 393 renal = tested on: RXF 393 renal
SR leukemia = tested on: SR leukemia
HCT-15 colon = tested on: HCT-15 colon
MDA-MB-468 breast = tested on: MDA-MB-468 breast
HCC-2998 colon = tested on: HCC-2998 colon
MOLT-4 leukemia = tested on: MOLT-4 leukemia
ACHN renal = tested on: ACHN renal
MCF7 breast = tested on: MCF7 breast

`COc1cc2c(cc1F)C(c1ccccc1Cl)=Nc1c(n[nH]c1C)N2` gave a GI50 (HOP-92 NSCLC) of 960 nM, a TGI (HOP-92 NSCLC) of 8.17 µM and a GI50 (K-562 leukemia) of 252 nM. For the same compound, the TGI (K-562 leukemia) was 13.6 µM, the GI50 (A498 renal) was 498 nM and the TGI (A498 renal) was 17.2 µM. It also gave a GI50 (EKVX NSCLC) of 597 nM, a TGI (EKVX NSCLC) of 13.8 µM and a GI50 (TK-10 renal) of 860 nM. It also gave a TGI (TK-10 renal) of 10.3 µM, a GI50 (SK-MEL-28 melanoma) of 778 nM and a TGI (SK-MEL-28 melanoma) of 18.6 µM. It also gave a GI50 (SF-268 CNS) of 370 nM, a TGI (SF-268 CNS) of 1770 nM and a GI50 (U251 glioblastoma) of 453 nM. For the same compound, the TGI (U251 glioblastoma) was 12.3 µM, the GI50 (A549 NSCLC) was 599 nM and the TGI (A549 NSCLC) was 15.6 µM. For the same compound, the GI50 (DU-145 prostate) was 2020 nM, the TGI (DU-145 prostate) was 13 µM and the GI50 (BT-549 breast) was 231 nM. The TGI (BT-549 breast) was 1080 nM, the GI50 (SK-OV-3 ovarian) was 757 nM and the TGI (SK-OV-3 ovarian) was 16.4 µM. For the same compound, the GI50 (OVCAR-4 ovarian) was 2260 nM, the TGI (OVCAR-4 ovarian) was 19.8 µM and the GI50 (SK-MEL-5 melanoma) was 236 nM. For the same compound, the TGI (SK-MEL-5 melanoma) was 12 µM, the GI50 (SK-MEL-2 melanoma) was 459 nM and the TGI (SK-MEL-2 melanoma) was 4.31 µM. The GI50 (MDA-MB-231 breast) was 650 nM, the TGI (MDA-MB-231 breast) was 16.8 µM and the GI50 (RPMI-8226 leukemia) was 253 nM. The TGI (RPMI-8226 leukemia) was 7.32 µM, the GI50 (NCI-H226 lung) was 688 nM and the TGI (NCI-H226 lung) was 2660 nM. It also gave a GI50 (SW-620 colon) of 336 nM, a TGI (SW-620 colon) of 11.1 µM and a GI50 (SF-539 CNS) of 351 nM. The TGI (SF-539 CNS) was 1500 nM, the GI50 (IGROV1 ovarian) was 679 nM and the TGI (IGROV1 ovarian) was 9.69 µM. For the same compound, the GI50 (RXF 393 renal) was 207 nM, the TGI (RXF 393 renal) was 1230 nM and the GI50 (SR leukemia) was 103 nM. The TGI (SR leukemia) was 238 nM, the GI50 (HCT-15 colon) was 304 nM and the TGI (HCT-15 colon) was 19.5 µM. The GI50 (MDA-MB-468 breast) was 180 nM, the TGI (MDA-MB-468 breast) was 387 nM and the GI50 (HCC-2998 colon) was 108 nM. For the same compound, the TGI (HCC-2998 colon) was 16.7 µM, the GI50 (MOLT-4 leukemia) was 146 nM and the TGI (MOLT-4 leukemia) was 283 nM. For the same compound, the GI50 (ACHN renal) was 1350 nM, the TGI (ACHN renal) was 13.3 µM and the GI50 (MCF7 breast) was 502 nM.
